The text below walks through data of patent publication US11524968B2, “Heterocyclic compound as a protein kinase inhibitor” (HK inno.N Corporation, priority 2017, dated 2022).

The assay concerns the target JAK1 (Homo sapiens (Human), UniProt P23458). Briefly: Analysis of JAK1 activity inhibition ability (ADP-Glo Kinase Assay). The following applies: JAK1 enzyme, ADP-Glo luminescence, ATP 250 uM, IRS-itide substrate, 30° C. 40 minutes; read-out: IC50. Format: biochemical. A digest of the protocol:
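ADP-Glo luminescence read-out of ADP production, with IC50 taken as the concentration halving JAK1 activity relative to control. Enzyme was incubated 40 min at 30 °C with compound, IRS-itide (40 ng/mL) and ATP (250 uM), concentrations as prepared in pH 7.5 Tris-HCl/MgCl2/BSA/DTT buffer.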

Molecules are shown by their SMILES.

JAK1, sequence (P23458 whole entry): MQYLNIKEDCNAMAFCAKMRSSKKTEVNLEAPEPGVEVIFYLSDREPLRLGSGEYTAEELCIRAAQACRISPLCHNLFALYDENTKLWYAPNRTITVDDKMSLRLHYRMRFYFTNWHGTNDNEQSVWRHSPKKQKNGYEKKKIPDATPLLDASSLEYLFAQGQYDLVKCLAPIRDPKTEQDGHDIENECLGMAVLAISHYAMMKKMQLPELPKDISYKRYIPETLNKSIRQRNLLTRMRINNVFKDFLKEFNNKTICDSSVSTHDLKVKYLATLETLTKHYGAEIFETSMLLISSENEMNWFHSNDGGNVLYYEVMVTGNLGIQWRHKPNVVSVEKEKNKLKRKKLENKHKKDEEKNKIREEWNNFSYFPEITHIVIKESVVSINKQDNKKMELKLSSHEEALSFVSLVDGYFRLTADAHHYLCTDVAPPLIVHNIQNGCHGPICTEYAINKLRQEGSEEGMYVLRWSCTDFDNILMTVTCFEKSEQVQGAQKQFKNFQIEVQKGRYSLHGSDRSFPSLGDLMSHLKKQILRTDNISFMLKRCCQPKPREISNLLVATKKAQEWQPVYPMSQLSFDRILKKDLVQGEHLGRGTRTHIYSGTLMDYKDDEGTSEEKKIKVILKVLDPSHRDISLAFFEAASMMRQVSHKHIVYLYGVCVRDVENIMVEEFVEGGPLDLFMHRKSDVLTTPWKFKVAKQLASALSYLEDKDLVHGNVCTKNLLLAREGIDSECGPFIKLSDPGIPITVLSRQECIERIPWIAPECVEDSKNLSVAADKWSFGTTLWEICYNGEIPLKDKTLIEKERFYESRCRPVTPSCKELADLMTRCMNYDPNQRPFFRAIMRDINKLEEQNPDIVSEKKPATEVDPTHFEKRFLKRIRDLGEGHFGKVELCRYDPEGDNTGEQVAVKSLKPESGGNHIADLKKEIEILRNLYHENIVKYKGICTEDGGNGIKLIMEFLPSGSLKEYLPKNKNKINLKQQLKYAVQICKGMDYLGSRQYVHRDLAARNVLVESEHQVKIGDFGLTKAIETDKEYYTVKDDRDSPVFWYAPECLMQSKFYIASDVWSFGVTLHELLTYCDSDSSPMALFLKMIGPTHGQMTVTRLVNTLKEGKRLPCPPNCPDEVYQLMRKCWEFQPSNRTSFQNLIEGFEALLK

In the case of `O=C(Nc1cc(C2=CCC(NC3CCN(C(=O)C4CCCCC4)CC3)CC2)c2cc[nH]c2n1)C1CC1` (stereo not shown) [Example 492, N-(4-(4-((1-(cyclohexanecarbonyl)piperidin-4-yl)amino)cyclohex-1-en-1-yl)-1H-pyrrolo[2,3-b]pyridin-6-yl)cyclopropanecarboxamide], the half-maximal inhibitory concentration (IC50) was above 200 nM.

In the case of `O=C(Nc1cc(C2=CCC(NC3CCN(C(=O)c4ccnc(F)c4)CC3)CC2)c2cc[nH]c2n1)C1CC1` (stereo not shown) [Example 493, N-(4-(4-((1-(2-fluoroisonicotinoyl)piperidin-4-yl)amino)cyclohex-1-en-1-yl)-1H-pyrrolo[2,3-b]pyridin-6-yl)cyclopropanecarboxamide], the IC50 is 20 to 200 nM.

Turning to `O=C(Nc1cc(C2=CCC(NC3CCN(C(=O)c4ccc([N+](=O)[O-])cc4)CC3)CC2)c2cc[nH]c2n1)C1CC1` (stereo not shown) [Example 494, N-(4-(4-((1-(4-nitrobenzoyl)piperidin-4-yl)amino)cyclohex-1-en-1-yl)-1H-pyrrolo[2,3-b]pyridin-6-yl)cyclopropanecarboxamide], the IC50 was above 200 nM.

Take `O=C(Nc1cc(C2=CCC(NC3CN(C(=O)c4cc(F)cc(F)c4)C3)CC2)c2cc[nH]c2n1)C1CC1` (stereo not shown) [Example 495, N-(4-(4-((1-(3,5-difluorobenzoyl)azetidin-3-yl)amino)cyclohex-1-en-1-yl)-1H-pyrrolo[2,3-b]pyridin-6-yl)cyclopropanecarboxamide]: the 50% inhibitory concentration (IC50) lay within 20 to 200 nM.

As to `O=C(Nc1cc(C2=CCC(NC3CN(C(=O)c4ccnc(F)c4)C3)CC2)c2cc[nH]c2n1)C1CC1` (stereo not shown) [Example 496, N-(4-(4-((1-(2-fluoroisonicotinoyl)azetidin-3-yl)amino)cyclohex-1-en-1-yl)-1H-pyrrolo[2,3-b]pyridin-6-yl)cyclopropanecarboxamide], the IC50 is above 200 nM.

Consider `COc1cc(C(=O)N2CC(NC3CC=C(c4cc(NC(=O)C5CC5)nc5[nH]ccc45)CC3)C2)ccn1` (stereo not shown) [Example 497, N-(4-(4-((1-(2-methoxyisonicotinoyl)azetidin-3-yl)amino)cyclohex-1-en-1-yl)-1H-pyrrolo[2,3-b]pyridin-6-yl)cyclopropanecarboxamide], for which the IC50 was in the range of 20 to 200 nM.

As to `O=C(Nc1cc(-c2ccc(NC3CCN(C(=O)Nc4ccccc4)CC3)c(F)c2)c2cc[nH]c2n1)C1CC1` [Example 498, 4-((4-(6-(cyclopropanecarboxamido)-1H-pyrrolo[2,3-b]pyridin-4-yl)-2-fluorophenyl)amino)-N-phenylpiperidine-1-carboxamide], the IC50 was 20 to 200 nM.

As for `O=C(Nc1cc(-c2ccc(NC3CCN(C(=O)c4cc(F)cc(F)c4)CC3)c(F)c2)c2cc[nH]c2n1)C1CC1` [Example 499, N-(4-(4-((1-(3,5-difluorobenzoyl)piperidin-4-yl)amino)-3-fluorophenyl)-1H-pyrrolo[2,3-b]pyridin-6-yl)cyclopropanecarboxamide], the IC50 is above 200 nM.

Consider `O=C(Nc1cc(-c2ccc(NC3CCN(C(=O)c4ccnc(F)c4)CC3)c(F)c2)c2cc[nH]c2n1)C1CC1` [Example 500, N-(4-(3-fluoro-4-((1-(2-fluoroisonicotinoyl)piperidin-4-yl)amino)phenyl)-1H-pyrrolo[2,3-b]pyridin-6-yl)cyclopropanecarboxamide], for which the IC50 was above 200 nM.

With `O=C(Nc1cc(-c2ccc(NC3CCN(C(=O)Nc4ccc(F)cc4F)CC3)c(F)c2)c2cc[nH]c2n1)C1CC1` [Example 501, 4-((4-(6-(cyclopropanecarboxamido)-1H-pyrrolo[2,3-b]pyridin-4-yl)-2-fluorophenyl)amino)-N-(2,4-difluorophenyl)piperidine-1-carboxamide], the IC50 was 20 to 200 nM.

On to `C[C@H]1CC(Nc2ccc(-c3cc(NC(=O)C4CC4)nc4[nH]ccc34)cc2)CCN1C(=O)c1cc(F)cc(F)c1` (stereo partly drawn) [Example 502, N-(4-(4-(((2S)-1-(3,5-difluorobenzoyl)-2-methylpiperidin-4-yl)amino)phenyl)-1H-pyrrolo[2,3-b]pyridin-6-yl)cyclopropanecarboxamide], for which the IC50 is above 200 nM.

`C[C@H]1CC(Nc2ccc(-c3cc(NC(=O)C4CC4)nc4[nH]ccc34)cc2)CCN1C(=O)c1ccnc(F)c1` (stereo partly drawn) [Example 503, N-(4-(4-(((2S)-1-(2-fluoroisonicotinoyl)-2-methylpiperidin-4-yl)amino)phenyl)-1H-pyrrolo[2,3-b]pyridin-6-yl)cyclopropanecarboxamide]: the IC50 is above 200 nM.

Consider `C[C@H]1CC(Nc2ccc(-c3cc(NC(=O)C4CC4)nc4[nH]ccc34)cc2)CCN1C(=O)NCC(F)(F)F` (stereo partly drawn) [Example 504, (2S)-4-((4-(6-(cyclopropanecarboxamido)-1H-pyrrolo[2,3-b]pyridin-4-yl)phenyl)amino)-2-methyl-N-(2,2,2-trifluoroethyl)piperidine-1-carboxamide], for which the IC50 was above 200 nM.

Take `O=C(Nc1cc(-c2ccc(NC3CCN(C(=O)NCC(F)(F)F)CC3)c(F)c2)c2cc[nH]c2n1)C1CC1` [Example 505, 4-((4-(6-(cyclopropanecarboxamido)-1H-pyrrolo[2,3-b]pyridin-4-yl)-2-fluorophenyl)amino)-N-(2,2,2-trifluoroethyl)piperidine-1-carboxamide]: the half-maximal inhibitory concentration (IC50) is 20 to 200 nM.

In the case of `C[C@H]1CC(Nc2ccc(-c3cc(NC(=O)C4CC4)nc4[nH]ccc34)cc2)CCN1C(=O)Nc1ccc(F)cc1F` (stereo partly drawn) [Example 506, (2S)-4-((4-(6-(cyclopropanecarboxamido)-1H-pyrrolo[2,3-b]pyridin-4-yl)phenyl)amino)-N-(2,4-difluorophenyl)-2-methylpiperidine-1-carboxamide], the IC50 fell in the range of 20 to 200 nM.

For `O=C(Nc1cc(-c2ccc(NC3CCN(C(=O)c4ccncc4)CC3)cc2)c2cc[nH]c2n1)C1CC1` [Example 507, N-(4-(4-((1-isonicotinoylpiperidin-4-yl)amino)phenyl)-1H-pyrrolo[2,3-b]pyridin-6-yl)cyclopropanecarboxamide], the IC50 was above 200 nM.

Consider `O=C(Nc1cc(-c2ccc(NC3CCN(C(=O)c4cc(F)cc(F)c4)CC3)cc2)c2cc[nH]c2n1)C1CC1` [Example 508, N-(4-(4-((1-(3,5-difluorobenzoyl)piperidin-4-yl)amino)phenyl)-1H-pyrrolo[2,3-b]pyridin-6-yl)cyclopropanecarboxamide], for which the 50% inhibitory concentration (IC50) was above 200 nM.

Consider `O=C(Nc1cc(-c2ccc(NC3CCN(C(=O)c4ccnc(F)c4)CC3)cc2)c2cc[nH]c2n1)C1CC1` [Example 509, N-(4-(4-((1-(2-fluoroisonicotinoyl)piperidin-4-yl)amino)phenyl)-1H-pyrrolo[2,3-b]pyridin-6-yl)cyclopropanecarboxamide], for which the IC50 is above 200 nM.

With `O=C(Nc1cc(-c2ccc(NC3CN(C(=O)c4cc(F)cc(F)c4)C3)cc2)c2cc[nH]c2n1)C1CC1` [Example 510, N-(4-(4-((1-(3,5-difluorobenzoyl)azetidin-3-yl)amino)phenyl)-1H-pyrrolo[2,3-b]pyridin-6-yl)cyclopropanecarboxamide], the IC50 was above 200 nM.

In the case of `O=C(Nc1cc(-c2ccc(NC3CCN(C(=O)Nc4ccc(F)cc4F)CC3)cc2)c2cc[nH]c2n1)C1CC1` [Example 511, 4-((4-(6-(cyclopropanecarboxamido)-1H-pyrrolo[2,3-b]pyridin-4-yl)phenyl)amino)-N-(2,4-difluorophenyl)piperidine-1-carboxamide], the IC50 fell in the range of 20 to 200 nM.

For the compound `O=C(Nc1cc(-c2ccc(NC3CCN(C(=O)NCC(F)(F)F)CC3)cc2)c2cc[nH]c2n1)C1CC1` [Example 512, 4-((4-(6-(cyclopropanecarboxamido)-1H-pyrrolo[2,3-b]pyridin-4-yl)phenyl)amino)-N-(2,2,2-trifluoroethyl)piperidine-1-carboxamide], the half-inhibitory concentration (IC50) is 20 to 200 nM.

As for `O=C(Nc1cc(-c2ccc(NC3CN(C(=O)Nc4ccc(F)cc4F)C3)cc2)c2cc[nH]c2n1)C1CC1` [Example 513, 3-((4-(6-(cyclopropanecarboxamido)-1H-pyrrolo[2,3-b]pyridin-4-yl)phenyl)amino)-N-(2,4-difluorophenyl)azetidine-1-carboxamide], the half-maximal inhibitory concentration (IC50) was above 200 nM.

As to `O=C(Nc1cc(-c2ccc(NC3CN(C(=O)NCC(F)(F)F)C3)cc2)c2cc[nH]c2n1)C1CC1` [Example 514, 3-((4-(6-(cyclopropanecarboxamido)-1H-pyrrolo[2,3-b]pyridin-4-yl)phenyl)amino)-N-(2,2,2-trifluoroethyl)azetidine-1-carboxamide], the IC50 is above 200 nM.

Regarding `N#CCC(=O)N1CC(Nc2ccc(-c3cc(NC(=O)C4CC4)nc4[nH]ccc34)cc2)C1` [Example 515, N-(4-(4-((1-(2-cyanoacetyl)azetidin-3-yl)amino)phenyl)-1H-pyrrolo[2,3-b]pyridin-6-yl)cyclopropanecarboxamide], the concentration for half-maximal inhibition (IC50) was 20 to 200 nM.

On to `N#CCC(=O)N1CCC(Nc2ccc(-c3cc(NC(=O)C4CC4)nc4[nH]ccc34)cc2)CC1` [Example 516, N-(4-(4-((1-(2-cyanoacetyl)piperidin-4-yl)amino)phenyl)-1H-pyrrolo[2,3-b]pyridin-6-yl)cyclopropanecarboxamide], for which the 50% inhibitory concentration (IC50) fell in the range of 20 to 200 nM.

For the compound `O=C(Nc1cc(-c2ccc(NC3CN(C(=O)CC(F)(F)F)C3)cc2)c2cc[nH]c2n1)C1CC1` [Example 517, N-(4-(4-((1-(3,3,3-trifluoropropanoyl)azetidin-3-yl)amino)phenyl)-1H-pyrrolo[2,3-b]pyridin-6-yl)cyclopropanecarboxamide], the IC50 fell in the range of 20 to 200 nM.

With `O=C(Nc1cc(-c2ccc(NC3CCN(C(=O)CC(F)(F)F)CC3)cc2)c2cc[nH]c2n1)C1CC1` [Example 518, N-(4-(4-((1-(3,3,3-trifluoropropanoyl)piperidin-4-yl)amino)phenyl)-1H-pyrrolo[2,3-b]pyridin-6-yl)cyclopropanecarboxamide], the half-maximal inhibitory concentration (IC50) is above 200 nM.

`N#CCC(=O)c1ccc(-c2cc(NC(=O)C3CC3)nc3[nH]ccc23)cc1` [Example 519, N-(4-(4-(2-cyanoacetyl)phenyl)-1H-pyrrolo[2,3-b]pyridin-6-yl)cyclopropanecarboxamide]: the IC50 is above 200 nM.
